The values below come from US7118895B2, “Process for producing aglycon by using diglycosidase and flavor-improved food containing the aglycon and converting agent to be used in the process” (Amano Enzyme Inc., priority 2000, dated 2006).

The nature of assay [1]: Effective amount of Amylase AD “Amano” 1 accelerating the conversion into aglycon isoflavones by diglycosidase. To be noted: Amylase AD “Amano” 1 at 0.005% (w/v) with diglycosidase 0.1% (w/v); roasted soy flour 30% (w/v), pH 5.0, 50° C., 3 hours. In kind it is biochemical. The method, then: Roasted soy flour (manufactured by Fuji Shokuhin K.K.) was suspended into 0.1 M sodium acetate adjusted to pH 3.15, the substrate concentration was adjusted to 30% (w/v), and the pH of the solution to 5.0. The suspension was pre-incubated at 50° C. for 1 hour, whereby the temperature of the suspension was elevated to 50° C. To the suspension were added diglycosidase so as to be a final concentration of 0.1% (w/v) (0.3 AU) and Amylase AD “Amano” 1 (manufactured by Amano Enzyme Innc.) so as to be 0.1, 0.05, 0.01, 0.005, and 0.0001% (w/v). The whole was reacted at 50° C. for 3 hours and the change of isoflavone composition was analyzed by HPLC.

Another assay has as its system Purified diglycosidase. The assay is described as follows: Influence of free glucose on diglycosidase activity. In kind it is biochemical, Penicillium multicolor IAM7153. The following applies: isolated aglycon amount at glucose 0% and 0.5 hour = 100%. As for the experimental part: Purified diglycosidase was diluted with 20 mM acetate buffer of pH 4.0 to prepare a 0.75 AU/mL enzyme solution.
With a glucose solution was mixed 10 μL of each 2 mM substrate solution described in Example 2, and 20 mM acetate buffer of pH 4.0 was added thereto to be a liquid volume of 210 μL. Further, 40 μL of the enzyme solution was added and reaction was carried out at a final liquid volume of 250 μL. Adjustment of the glucose solution to be added allows glucose to exist in the reaction mixture in the range of 0 to 20%. The reaction was carried out at 55° C. and the existence of isoflavone glycosides and aglycon isoflavones was detected by HLPC at 0, 0.5, 1, and 3 hours of the reaction.

Assay [2] deals with Diglycosidase derived from A. fumigatus. The assay is described as follows: Reactivity toward various isoflavone glycosides (HPLC). In kind it is biochemical, Aspergillus fumigatus. The following applies: 55 °C, pH 4.0. On the set-up: unit not given here. The method, then:
(§1) Diglycosidase was diluted with an acetate buffer of pH 4.0 to prepare a 0.75 AU/mL enzyme solution. As references, a similar operation was conducted using β-glucosidase (manufactured by Fluka) derived from Aspergillus niger, β-glucosidase (manufactured by Sigma) derived from almond, β-xylosidase derived from pectinase G (manufactured by Amano Enzyme Inc.). Each of purified products of isoflavone glycosides (glycitin, acetylglycitin, malonylglycitin, daidzin, acetyldaidzin, malonyldaidzin, genistin, acetylgenistin, malonylgenistin, all manufactured by Nacalai Tesque, Inc.) was dissolved in methanol to prepare each 2 mM substrate solution. The reaction was carried out by mixing 10 μL of a substrate solution, 200 μL of 20 mM acetate buffer (pH 4.0), and 40 μL of each purified enzyme solution at a total liquid volume of 250 μL. The reaction was carried out at 55° C. and isolation of an aglycon isoflavone from an isoflavone glycoside in the reaction mixture was detected by HLPC at 0, 1, 3, and 6 hours of the reaction.
(§2) To the reaction mixture was added 700 μL of ethanol, followed by stirring and ultrasonication. After centrifugation at 15,000 rpm and 4° C. for 10 minutes, the supernatant was filtered through a filter and then the filtrate was applied to HPLC.
(§3) The isoflavone glycoside and aglycon isoflavone contained in the filtrate was separated and detected by a high performance liquid chromatography (HPLC, Shimadzu CLASS LC-10 system) using TOSOH TSK gel ODS-80TM column (manufactured by Tosoh Corporation). […] The absorbance at 260 nm was detected by a UV detector (Shimadzu, SPD-10AV). Using purified products (manufactured by Nacalai Tesque, Inc.) of the above isoflavone glycosides and aglycon isoflavones, the isoflavone glycoside and aglycon isoflavone were quantitatively determined according to a calibration curve method. By the way, unless otherwise stated, the measuring conditions of HPLC herein mean those described in the example.

Assay [3] has as its system β-Glucosidase derived from almond. The assay is described as above. In kind it is biochemical. Further details: unit not given here. The following applies: 55 °C, pH 4.0. As for the experimental part: as §1, §2, §3
Assay [4] concerns β-Xylosidase derived from pectinase G. The description is as above. In kind it is biochemical. On the set-up: unit not given here. The following applies: 55 °C, pH 4.0. As for the experimental part:
as §1, §2, §3

Take `O=c1c(-c2ccc(O)cc2)coc2cc(O)ccc12` [daidzein]: in assay [1], the “increase of isolated aglycon versus diglycosidase alone” value is on record as 1.2 fold.
On the same count and under the same terms, in the case of `O=c1c(-c2ccc(O)cc2)coc2cc(O)cc(O)c12` [genistein] it was 1.20 fold; in that of `COc1cc2c(=O)c(-c3ccc(O)cc3)coc2cc1O` [glycitein], 1.23 fold.
Consider `COc1cc2c(=O)c(-c3ccc(O)cc3)coc2cc1O[C@@H]1O[C@H](CO)[C@@H](O)[C@H](O)[C@H]1O` [glycitin], for which the “Isolation of isoflavone aglycons by diglycosidase in presence of glucose” value (“Isolation of isoflavone aglycons” for short) in the assay with Purified diglycosidase (Glucose concentration 0 %) came to 100%; in the assay on Purified diglycosidase (Glucose concentration 2 %), 96%; in the assay on Purified diglycosidase (Glucose concentration 4 %), 99.7%; in the assay on Purified diglycosidase (Glucose concentration 8 %), 100.1%; in the assay on Purified diglycosidase (Glucose concentration 20 %), 92.8%. Besides, the aglycon came to 0 in assay [2] (Reaction time 0 h); 0.5 in assay [2] (Reaction time 1 h); 0 in assay [2] (Reaction time 3 h); 0 in assay [2] (Reaction time 6 h); 0 in assay [3] (Reaction time 0 h); 1.6 in assay [3] (Reaction time 1 h). For the same compound, the aglycon in assay [3] (Reaction time 3 h) is 1.9; in assay [3] (Reaction time 6 h), 1.9; in assay [4] (Reaction time 0 h), 0; in assay [4] (Reaction time 1 h), 0.8; in assay [4] (Reaction time 3 h) it was 2.4; in assay [4] (Reaction time 6 h), 4.5. In addition, the glucoside in assay [2] (Reaction time 0 h) is reported as 100; in assay [2] (Reaction time 1 h) it was 99.5; in assay [2] (Reaction time 3 h), 100; in assay [2] (Reaction time 6 h) it was 100; in assay [3] (Reaction time 0 h) it was 100; in assay [3] (Reaction time 1 h), 98.4. Besides, the glucoside amounted to 98.1 in assay [3] (Reaction time 3 h); 98.1 in assay [3] (Reaction time 6 h); 100 in assay [4] (Reaction time 0 h); 99.2 in assay [4] (Reaction time 1 h); 97.6 in assay [4] (Reaction time 3 h); 95.5 in assay [4] (Reaction time 6 h).
Regarding `O=C(O)CC(=O)OC[C@H]1O[C@@H](Oc2ccc3c(=O)c(-c4ccc(O)cc4)coc3c2)[C@H](O)[C@@H](O)[C@@H]1O` [malonyldaidzin, 6″-O-malonyldaidzin], the “Isolation of isoflavone aglycons” value in the assay with Purified diglycosidase (Glucose concentration 0 %) was determined as 100%; in the assay on Purified diglycosidase (Glucose concentration 2 %) it was 125.3%; in the assay on Purified diglycosidase (Glucose concentration 4 %), 132.1%; with Purified diglycosidase (Glucose concentration 8 %) it was 125.4%; with Purified diglycosidase (Glucose concentration 20 %), 98.1%. Also, the aglycon in assay [2] (Reaction time 0 h) worked out at 0; in assay [2] (Reaction time 1 h), 10; in assay [2] (Reaction time 3 h), 20.5; in assay [2] (Reaction time 6 h), 32.3; in assay [3] (Reaction time 0 h), 0; in assay [3] (Reaction time 1 h), 0. Also, the aglycon is reported as 0 in assay [3] (Reaction time 3 h); 0 in assay [3] (Reaction time 6 h); 0 in assay [4] (Reaction time 0 h); 0.4 in assay [4] (Reaction time 1 h); 1.6 in assay [4] (Reaction time 3 h); 3.3 in assay [4] (Reaction time 6 h). The glucoside was 100 in assay [2] (Reaction time 0 h); 90 in assay [2] (Reaction time 1 h); 79.5 in assay [2] (Reaction time 3 h); 67.7 in assay [2] (Reaction time 6 h); 100 in assay [3] (Reaction time 0 h); 100 in assay [3] (Reaction time 1 h). Also, the glucoside was 100 in assay [3] (Reaction time 3 h); 100 in assay [3] (Reaction time 6 h); 100 in assay [4] (Reaction time 0 h); 99.6 in assay [4] (Reaction time 1 h); 98.4 in assay [4] (Reaction time 3 h); 96.7 in assay [4] (Reaction time 6 h).
In the case of `O=C(O)CC(=O)OC[C@H]1O[C@@H](Oc2cc(O)c3c(=O)c(-c4ccc(O)cc4)coc3c2)[C@H](O)[C@@H](O)[C@@H]1O` [malonylgenistin, 6″-O-malonylgenistin], the “Isolation of isoflavone aglycons” value in the assay on Purified diglycosidase (Glucose concentration 0 %) turned out to be 100%; with Purified diglycosidase (Glucose concentration 2 %), 152%; with Purified diglycosidase (Glucose concentration 4 %), 164.7%; with Purified diglycosidase (Glucose concentration 8 %) it was 163.5%; with Purified diglycosidase (Glucose concentration 20 %), 139.5%. Also, the aglycon in assay [2] (Reaction time 0 h) came to 0; in assay [2] (Reaction time 1 h) it was 2.4; in assay [2] (Reaction time 3 h), 5.2; in assay [2] (Reaction time 6 h), 8.2; in assay [3] (Reaction time 0 h), 0; in assay [3] (Reaction time 1 h), 0. The aglycon in assay [3] (Reaction time 3 h) is 0; in assay [3] (Reaction time 6 h) it was 0; in assay [4] (Reaction time 0 h), 0; in assay [4] (Reaction time 1 h), 0; in assay [4] (Reaction time 3 h), 0.6; in assay [4] (Reaction time 6 h), 2. Further, the glucoside in assay [2] (Reaction time 0 h) came to 100; in assay [2] (Reaction time 1 h) it was 97.6; in assay [2] (Reaction time 3 h) it was 94.8; in assay [2] (Reaction time 6 h), 91.8; in assay [3] (Reaction time 0 h), 100; in assay [3] (Reaction time 1 h) it was 100. Further, the glucoside in assay [3] (Reaction time 3 h) is given as 100; in assay [3] (Reaction time 6 h) it was 100; in assay [4] (Reaction time 0 h), 100; in assay [4] (Reaction time 1 h), 100; in assay [4] (Reaction time 3 h) it was 99.4; in assay [4] (Reaction time 6 h), 98.
`COc1cc2c(=O)c(-c3ccc(O)cc3)coc2cc1O[C@@H]1O[C@H](COC(=O)CC(=O)O)[C@@H](O)[C@H](O)[C@H]1O` [malonylglycitin, 6″-O-malonylglycitin]: the “Isolation of isoflavone aglycons” value came to 100% with Purified diglycosidase (Glucose concentration 0 %); 121.4% in the assay on Purified diglycosidase (Glucose concentration 2 %); 127.6% in the assay with Purified diglycosidase (Glucose concentration 4 %); 128.6% in the assay on Purified diglycosidase (Glucose concentration 8 %); 116.4% in the assay on Purified diglycosidase (Glucose concentration 20 %). For the same compound, the aglycon stood at 0 in assay [2] (Reaction time 0 h); 0.4 in assay [2] (Reaction time 1 h); 0.8 in assay [2] (Reaction time 3 h); 1.4 in assay [2] (Reaction time 6 h); 0 in assay [3] (Reaction time 0 h); 0 in assay [3] (Reaction time 1 h). The aglycon in assay [3] (Reaction time 3 h) came out at 0; in assay [3] (Reaction time 6 h) it was 0; in assay [4] (Reaction time 0 h), 0; in assay [4] (Reaction time 1 h), 0; in assay [4] (Reaction time 3 h), 0; in assay [4] (Reaction time 6 h), 0.4. Also, the glucoside in assay [2] (Reaction time 0 h) is listed as 100; in assay [2] (Reaction time 1 h), 99.6; in assay [2] (Reaction time 3 h), 99.2; in assay [2] (Reaction time 6 h) it was 98.6; in assay [3] (Reaction time 0 h) it was 100; in assay [3] (Reaction time 1 h), 100. Further, the glucoside in assay [3] (Reaction time 3 h) was 100; in assay [3] (Reaction time 6 h), 100; in assay [4] (Reaction time 0 h), 100; in assay [4] (Reaction time 1 h), 100; in assay [4] (Reaction time 3 h), 100; in assay [4] (Reaction time 6 h), 99.6.
